Test results published in a compilation of properties of binary mixtures (doi:10.1016/j.tca.2014.09.015).

Assay: xn = mol fraction of the nth substance listed
Conditions: 101 kPa

viscosity (303.15 K, x1 = 1) [mPa·s] | viscosity (313.15 K, x1 = 1) [mPa·s] | viscosity (298.15 K, x2 = 0.2761) [mPa·s] | viscosity (298.15 K, x2 = 0.8745) [mPa·s] | viscosity (303.15 K, x2 = 0.5594) [mPa·s] | viscosity (303.15 K, x2 = 0.8745) [mPa·s] | viscosity (308.15 K, x2 = 0.5594) [mPa·s] | viscosity (323.15 K, x2 = 0.7786) [mPa·s] | viscosity (328.15 K, x2 = 0) [mPa·s] | viscosity (328.15 K, x2 = 0.7786) [mPa·s] | viscosity (338.15 K, x2 = 0.2761) [mPa·s] | viscosity (343.15 K, x2 = 0.2761) [mPa·s] | Structure (SMILES)
0.81 | 0.68 | – | – | – | – | – | – | – | – | – | – | O + CCOS(=O)(=O)[O-].CC[N+]1(C)CCOCC1
– | – | 690 | 7.7 | 94 | 6.5 | 72 | 8.8 | 780 | 7.6 | 86 | 69 | CCOS(=O)(=O)[O-].CC[N+]1(C)CCOCC1 + O
